“Also recorded” adds a separate entry of the source. Blank lines part the entries; values can stand above or below the compound they belong to.
What was measured:
1321N1 astrocytoma cells [1] = assay: [Ca2+]i response before and after UV uncaging, fluo-3; assay type: cell-based; settings: for [Ca2+]i response after uncaging of IP3-CPM: Ca2+ free medium
Experimental: (b) Same experiment as (a) except done in Ca^2+ free medium (DPBS, O Ca^2+, 0.5 mM EGTA). UV exposure of the cells treated with IP3 -CPM still gave the same response, showing that the [Ca^2+ ]i increase resulted from the release of Ca^2+ from internal stores. […] The cells were loaded with fluo-3/AM. During the experiment the cells were bathed in HBS buffered with 20 mM Hepes at pH 7.4 and supplemented with 2 g/L glucose.
The [Ca^2+ ]i was monitored using the calcium indicator fluo-3 rather than fura-2 to keep the excitation wavelength of the indicator (490 nm) far from the uncaging wavelength (360 nm) of DMNB group. […] Compared to the photolyzing set-up (direct illumination by a hand mercury lamp) used for the IP3 -binding assay, the optical throughput from the source lamp to the specimen is much higher in a microscope, so 10 seconds (as opposed to 2 hours in IP3 binding assay) of photolysis was sufficient to produce enough IP3 to elicit [Ca^2+ ]i increase. The same amount of UV alone had no effect at all on [Ca^2+ ]i in cells not treated with IP3 -CPM. After recovering from uncaging of IP3 -CPM, the cells responded to subsequent carbachol and thapsigargin stimulation normally.
This confirmed that the [Ca^2+ ]i increase due to uncaging of IP3 -CPM resulted from internal Ca^2+ release, which was consistent with the normal mechanism of IP3 action.

1321N1 astrocytoma cells [2] = assay: as above; assay type: cell-based; settings: with extracellular Ca2+, carbachol 200 μM, thapsigargin 100 nM, ionomycin 5 μM
intestinal cell line T84 = assay: cells; assay type: cell-based; settings: 0.2 h; T84, ISC 12 min after addition; read-out: EC50 (chloride secretion)
Excerpt: A convenient test system is the intestinal cell line T84, in which chloride secretion can be continuously monitored by mounting confluent monolayers of cells in Ussing chambers (42).

IP3 receptor (IP3 R) = target: T1, IP3 receptor (IP3 R) (Bos taurus, UniProt Q9TU34); assay: [3H]IP3 binding assay, bovine cerebellum microsomal fractions; settings: for affinity to IP3 R / binding to cerebellar microsomes (in words): without photolysis
T1 construct: from tissue; host or cells: bovine cerebellum microsomal fractions
T1 sequence (Q9TU34 whole entry): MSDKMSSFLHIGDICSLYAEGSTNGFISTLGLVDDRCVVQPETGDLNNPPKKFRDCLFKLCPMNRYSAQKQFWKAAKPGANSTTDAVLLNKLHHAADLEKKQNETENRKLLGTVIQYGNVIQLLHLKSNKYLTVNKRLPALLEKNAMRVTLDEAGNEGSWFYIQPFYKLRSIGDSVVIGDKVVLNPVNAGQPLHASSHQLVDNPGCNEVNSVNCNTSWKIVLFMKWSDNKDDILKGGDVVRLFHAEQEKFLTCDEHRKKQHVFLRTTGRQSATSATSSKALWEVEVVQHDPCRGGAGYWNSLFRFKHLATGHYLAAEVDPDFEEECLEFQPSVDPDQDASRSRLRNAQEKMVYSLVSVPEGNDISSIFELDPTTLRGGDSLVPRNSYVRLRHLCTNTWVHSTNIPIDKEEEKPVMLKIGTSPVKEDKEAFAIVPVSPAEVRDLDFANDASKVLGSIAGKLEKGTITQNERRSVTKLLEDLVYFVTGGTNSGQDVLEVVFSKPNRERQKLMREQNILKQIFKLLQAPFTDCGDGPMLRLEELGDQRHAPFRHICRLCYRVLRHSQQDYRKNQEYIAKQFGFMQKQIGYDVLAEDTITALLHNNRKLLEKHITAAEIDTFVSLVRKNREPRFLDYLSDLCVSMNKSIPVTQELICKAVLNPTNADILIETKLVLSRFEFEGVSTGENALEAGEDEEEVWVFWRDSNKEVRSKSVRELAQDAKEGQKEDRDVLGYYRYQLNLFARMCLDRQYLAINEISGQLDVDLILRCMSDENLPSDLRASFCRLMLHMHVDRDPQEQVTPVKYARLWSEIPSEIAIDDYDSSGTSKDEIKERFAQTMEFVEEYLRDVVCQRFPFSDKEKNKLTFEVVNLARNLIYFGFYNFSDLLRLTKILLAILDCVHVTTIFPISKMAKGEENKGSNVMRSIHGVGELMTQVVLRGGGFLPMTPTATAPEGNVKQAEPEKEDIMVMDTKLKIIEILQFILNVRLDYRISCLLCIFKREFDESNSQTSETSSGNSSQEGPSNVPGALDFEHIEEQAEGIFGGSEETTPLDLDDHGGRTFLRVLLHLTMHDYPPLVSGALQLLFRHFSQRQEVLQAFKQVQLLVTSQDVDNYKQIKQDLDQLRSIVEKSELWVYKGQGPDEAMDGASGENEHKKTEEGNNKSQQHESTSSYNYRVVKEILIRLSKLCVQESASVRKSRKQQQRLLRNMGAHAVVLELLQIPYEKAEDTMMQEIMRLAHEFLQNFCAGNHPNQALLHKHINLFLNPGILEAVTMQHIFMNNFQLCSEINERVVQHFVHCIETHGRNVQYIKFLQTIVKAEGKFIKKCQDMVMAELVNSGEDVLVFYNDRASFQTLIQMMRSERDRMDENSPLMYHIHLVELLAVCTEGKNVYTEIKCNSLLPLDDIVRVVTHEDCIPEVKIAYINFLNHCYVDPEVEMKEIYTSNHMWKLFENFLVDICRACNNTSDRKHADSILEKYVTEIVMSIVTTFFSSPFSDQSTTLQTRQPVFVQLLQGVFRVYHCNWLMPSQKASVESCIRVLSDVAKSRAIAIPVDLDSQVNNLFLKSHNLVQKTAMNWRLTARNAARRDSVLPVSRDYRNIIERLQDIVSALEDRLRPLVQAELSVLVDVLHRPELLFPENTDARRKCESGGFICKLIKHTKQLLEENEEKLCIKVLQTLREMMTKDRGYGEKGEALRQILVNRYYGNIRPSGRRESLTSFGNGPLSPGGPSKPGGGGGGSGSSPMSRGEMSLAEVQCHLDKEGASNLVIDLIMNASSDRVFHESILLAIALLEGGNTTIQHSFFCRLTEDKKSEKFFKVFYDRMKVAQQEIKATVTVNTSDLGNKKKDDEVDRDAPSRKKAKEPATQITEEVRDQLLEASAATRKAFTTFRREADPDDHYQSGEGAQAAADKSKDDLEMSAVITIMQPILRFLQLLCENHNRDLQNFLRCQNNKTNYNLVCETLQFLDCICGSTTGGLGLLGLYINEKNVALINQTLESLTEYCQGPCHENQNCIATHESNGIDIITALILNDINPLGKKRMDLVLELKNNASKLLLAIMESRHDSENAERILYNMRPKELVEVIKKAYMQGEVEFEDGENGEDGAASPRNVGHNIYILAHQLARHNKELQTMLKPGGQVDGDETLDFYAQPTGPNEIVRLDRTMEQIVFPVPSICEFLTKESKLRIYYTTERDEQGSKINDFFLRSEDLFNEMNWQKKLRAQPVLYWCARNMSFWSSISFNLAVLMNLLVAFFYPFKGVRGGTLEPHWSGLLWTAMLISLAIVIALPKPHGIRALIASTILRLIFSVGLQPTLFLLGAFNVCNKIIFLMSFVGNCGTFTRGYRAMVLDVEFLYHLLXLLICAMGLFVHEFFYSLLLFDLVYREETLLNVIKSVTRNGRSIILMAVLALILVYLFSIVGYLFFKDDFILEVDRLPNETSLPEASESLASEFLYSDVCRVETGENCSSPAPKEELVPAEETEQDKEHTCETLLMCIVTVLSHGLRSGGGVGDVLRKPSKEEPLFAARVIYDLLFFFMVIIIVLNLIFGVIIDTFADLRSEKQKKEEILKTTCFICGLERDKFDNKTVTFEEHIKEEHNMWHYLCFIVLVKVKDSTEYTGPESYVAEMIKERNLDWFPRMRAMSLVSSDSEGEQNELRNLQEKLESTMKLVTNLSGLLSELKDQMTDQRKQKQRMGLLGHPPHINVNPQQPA
Experimental: Bovine cerebellum microsomal fractions, which are a rich source of IP3 binding protein, were prepared and used for [^3 H]IP3 binding assay. […] The IC50 of D-IP3 was about 8 nM.
At this point, the crude photolysis product from 100 pmol V-16 was equivalent in binding activity to 32 pmol of authentic IP3. […] The absolute stereochemistry of V-3 and its diastereomer was thus assigned.

phosphatase = assay: Intracellular retention and metabolic (phosphatase) stability; assay type: in vitro ADME
Experimental: In human embryonic kidney cells (HEK cells), the extracellular IP3 -CPM was washed away after the cells had been loaded with 50 μM of IP3 -CPM for 20 minutes. […] Cells in the same dish which had not been exposed to UV light were kept in the dark for over 6 hours. […] However, pretreatment of IP3 -CPM with acetic acid will unmask the 3-hydroxyl and enable the intracellular phosphorylation of delivered IP3.

1321N1 astrocytoma cells [3] = assay: Cytosolic free Ca2+ imaging, fura-2; assay type: cell-based
Experimental: Biological tests on 1321N1 astrocytoma cells were performed similarly to the tests on REF-52 cells (71). The concentration of Cytosolic free Ca^2+ (ordinate, in units of μM) in fura-2-loaded 1321N1 astrocytoma cells is shown as a function of time (abscissa, in units of seconds). At the dotted vertical line labeled 1, 20 μM inositol-1,4,5-triphosphate propionyloxymethyl ester (5a, R=Et, R'=H) was added. […] Subsequently the cells could respond to carbachol (200 μM, delivered at the dotted vertical line labeled 2), a drug that stimulates the endogenous generation of inositol-1,4,5-triphosphate. However, the response to carbachol is depressed by the prior treatment with the inositol-1,4,5-triphosphate propionyloxymethyl ester. Likewise the Ca^2+ response to thapsigargin (100 nM, delivered at the dotted vertical line labeled 3), another drug that releases stored Ca^2+, is depressed.
A test similar to the one shown in FIG. 7 was conducted except that the medium lacked extracellular Ca^2+ and a dose of 60 μM inositol-1,4,5-triphosphate propionyloxymethyl ester was added at the dotted vertical line labeled 1. […] Because no extracellular Ca^2+ was present, this response must have represented release from intracellular Ca^2+ stores. […] The much greater degree of inhibition of the carbachol response compared to the previous example (FIG. 7) is due to the higher dose of the inositol-1,4,5-triphosphate propionyloxymethyl ester and the absence of extracellular Ca^2+, which reduces refilling of Ca^2+ stores.
In a further example, the same test as set forth above was conducted with astrocytoma cells, except that 2 μM inositol-1,4,5-triphosphate butyryloxymethyl ester (5a, R=Pr, R'=H) was used instead of the propionyloxymethyl ester.

REF-52 fibroblasts = assay: Cytosolic free Ca2+ imaging, fura-2; assay type: cell-based
Experimental: The best-established biological effect of IP3 is to release Ca^2+ from internal stores (26), so IP3 /PM (5a, R=Et, R'=H) was tested by imaging cytosolic free Ca^2+ levels in single REF-52 fibroblasts using standard methodology (58). Cells were loaded with the Ca^2+ -indicator fura-2 and viewed by fluorescence excitation ratioing. IP3 /PM (40 μM) was applied extracellularly while monitoring cytosolic Ca^2+ concentrations.

[4] = test system: P388D1 macrophage-like cells; assay: [Ca2+]i response before and after UV uncaging, fluo-3; assay type: cell-based; settings: PAF 100 nM, ionomycin 5 μM
Experimental: The cells were loaded with fluo-3/AM. During the experiment the cells were bathed in HBS buffered with 20 mM Hepes at pH 7.4 and supplemented with 2 g/L glucose.
Another example was carried out in P388D1 macrophage-like cells.
Studies by Asmis et al. (92) have shown that, in P388D1 macrophage-like cells, PAF stimulated PGE2 production is mediated through two separate signals: IP3 induced [Ca^2+ ]i increase and another unidentified signal. IP3 -CPM might serve as a new tool for detailed study of PGE2 formation and AA release in relation to IP3 and [Ca^2+ ]i in these cells. One of the major advantages of using permeant IP3 derivatives is that experiments can be easily carried out in a population of cells, which is required for the measurement of AA release and PGE2 formation.

[5] = 20 μM compound, with extracellular Ca2+

Structure (SMILES): C[N+](C)(C)CCOC(N)=O [Carbachol]
[Ca2+]i response after uncaging of IP3-CPM (1321N1 astrocytoma cells [1]): able to cause further Ca^2+ release
[Ca2+]i response after recovery from uncaging of IP3-CPM (1321N1 astrocytoma cells [2]): normal response
[Ca2+]i response after recovery from uncaging of IP3-CPM (1321N1 astrocytoma cells [2]; listed as carbachol): normally

EC50 (intestinal cell line T84): 100 µM
Structure (SMILES): Nc1ncnc2c1nc(Sc1ccc(Cl)cc1)n2[C@@H]1O[C@@H]2COP(=O)(O)O[C@H]2[C@H]1O [Compound 8-pCPT-cAMP, 8-para-chlorophenylthio (cCPT) cAMP, reference compound]

amount of authentic IP3 equivalent in binding activity to crude photolysis product from 100 pmol V-16 (IP3 receptor (IP3 R); after about 2 h photolysis): 32 pmol
binding to the receptor upon photolysis (IP3 receptor (IP3 R); photolysis at 366 nm): UV-dose-dependent increase of binding
time at which binding leveled off on photolysis (IP3 receptor (IP3 R); photolysis at 366 nm): about 2 hours
affinity to IP3 R / binding to cerebellar microsomes (in words) (IP3 receptor (IP3 R)): negligible binding
Structure (SMILES): COc1cc(CO[C@@H]2[C@@H](OP(=O)(O)O)[C@H](OP(=O)(O)O)[C@H]3OC(OC)O[C@H]3[C@H]2OP(=O)(O)O)c([N+](=O)[O-])cc1OC (stereo partly drawn) [Compound V-16, D-2,3-O-methoxymethylene-6-O-(4,5-dimethoxy-2-nitrobenzyl)-myo-inositol 1,4,5-trisphosphate]
releasing Ca2+ without photolysis (1321N1 astrocytoma cells [1]; caged IP3 analog released inside cells): inactive in releasing Ca^2+
phosphatase degradation / metabolic stability (in words) (phosphatase; in cells): metabolically fairly stable; also recorded: fairly resistant to phosphatase degradation
retention in cells (in words) (phosphatase; in cells): well retained in cells; also recorded: could be trapped inside cells for a long period of time without losing much of its activity

affinity for IP3 receptor, fold weaker than IP3 (IP3 receptor (IP3 R); assuming 100% chemical yield of uncaged product): 3 fold
affinity to IP3 R relative to IP3 (IP3 receptor (IP3 R); photolysis product): at least one third
Structure (SMILES): COC1O[C@@H]2[C@@H](OP(=O)(O)O)[C@H](OP(=O)(O)O)[C@@H](O)[C@H](OP(=O)(O)O)[C@@H]2O1 (stereo partly drawn) [D-2,3-methoxymethylene-myo-inositol 1,4,5-trisphosphate]
internal Ca2+ release upon photolysis (in words) (1321N1 astrocytoma cells [1]; photolysis product of V-16 in cells): induced internal Ca^2+ release
phosphorylation into 1,3,4,5-IP4 (in words) (phosphatase): can not be phosphorylated into 1,3,4,5-IP4

IC50 (IP3 receptor (IP3 R); cerebellar microsomes, read-out: IC50, inhibition of [3H]IP3 binding): ~0.008 µM
Structure (SMILES): O=P(O)(O)O[C@@H]1[C@H](O)[C@H](O)[C@@H](OP(=O)(O)O)[C@H](OP(=O)(O)O)[C@H]1O [D-IP3, myo-inositol 1,4,5-triphosphate, reference compound]

Structure (SMILES): COc1cc(CO[C@@H]2[C@@H](OP(=O)(OCOC(C)=O)OCOC(C)=O)[C@H](OP(=O)(OCOC(C)=O)OCOC(C)=O)[C@H]3OC(OC)O[C@H]3[C@H]2OP(=O)(OCOC(C)=O)OCOC(C)=O)c([N+](=O)[O-])cc1OC (stereo partly drawn) [IP3 -CAM, D-2,3-O-methoxymethylene-6-O-(4,5-dimethoxy-2-nitrobenzyl)-myo-inositol 1,4,5-trisphosphate hexakis(acetoxymethyl)ester]
incubation time required (1321N1 astrocytoma cells [1]; astrocytes, response similar to IP3-CPM): more than 15 minutes

Structure (SMILES): CCCC(=O)OCOP(=O)(OCOC(=O)CCC)O[C@@H]1[C@H](O)[C@H](O)[C@@H](OP(=O)(OCOC(=O)CCC)OCOC(=O)CCC)[C@H](OP(=O)(OCOC(=O)CCC)OCOC(=O)CCC)[C@H]1O [IP3 /BM, D-myo-inositol-1,4,5-triphosphate butyryloxymethyl ester]
Ca2+ elevation, potency compared with propionyloxymethyl ester (1321N1 astrocytoma cells [3]; 2 μM, with extracellular Ca2+): somewhat more potent
time course compared with propionyloxymethyl ester (1321N1 astrocytoma cells [3]; 2 μM, with extracellular Ca2+): slower to appear and decay

Structure (SMILES): CCC(=O)OCOP(=O)(OCOC(=O)CC)O[C@@H]1[C@H](O)[C@H](O)[C@@H](OP(=O)(OCOC(=O)CC)OCOC(=O)CC)[C@H](OP(=O)(OCOC(=O)CC)OCOC(=O)CC)[C@H]1O [IP3 /PM, D-myo-inositol-1,4,5-triphosphate propionyloxymethyl ester]
effect of subsequent vasopressin after compound (REF-52 fibroblasts; REF-52, 40 μM compound): much less effect than normal
cytosolic Ca2+ concentration (REF-52 fibroblasts; REF-52, 40 μM extracellular): increased rapidly
Ca2+ release from internal stores (in words) (REF-52 fibroblasts; intact REF-52 fibroblasts and astrocytoma cells): released Ca^2+ from internal stores
response to subsequent carbachol (200 μM) (1321N1 astrocytoma cells [3]; [5]): depressed
response to subsequent thapsigargin (100 nM) (1321N1 astrocytoma cells [3]; [5]): depressed
delay of Ca2+ elevation (1321N1 astrocytoma cells [3]; 20 μM, with extracellular Ca2+): about 100 second
elevation of cytosolic Ca2+ (1321N1 astrocytoma cells [3]; 20 μM, with extracellular Ca2+): sizable elevation of cytosolic Ca^2+
response to subsequent carbachol (200 μM) (1321N1 astrocytoma cells [3]; 60 μM compound, no extracellular Ca2+): greatly depressed
delay of Ca2+ elevation (1321N1 astrocytoma cells [3]; 60 μM, no extracellular Ca2+): ~50 s
elevation of cytosolic Ca2+ (1321N1 astrocytoma cells [3]; 60 μM, no extracellular Ca2+): sizable elevation of cytosolic Ca^2+

Structure (SMILES): C[C@H](CCC(=O)O)C[C@H](C)C[C@H](C)C(=O)/C=C(\O)[C@H](C)C[C@H](C)C/C=C/[C@@H](C)[C@@H](O)[C@@H](C)[C@@H](O)C[C@@H]1CC[C@@](C)([C@H]2CC[C@@](C)([C@@H](C)O)O2)O1 [Ionomycin, reference compound]
[Ca2+]i response after uncaging of IP3-CPM (1321N1 astrocytoma cells [1]): small and transient [Ca^2+ ]i increase; also recorded: additional small [Ca^2+ ]i increase
[Ca2+]i response after uncaging of IP3-CPM [4]: huge [Ca^2+ ]i increase
[Ca2+]i response after recovery from uncaging of IP3-CPM (1321N1 astrocytoma cells [2]): further raised [Ca^2+ ]i to a saturating level; also recorded: huge [Ca^2+ ]i increase

affinity to IP3 R / binding to cerebellar microsomes (in words) (IP3 receptor (IP3 R)): negligible affinity
Structure (SMILES): O=P(O)(O)O[C@@H]1[C@@H](O)[C@H](OP(=O)(O)O)[C@@H](OP(=O)(O)O)[C@H](O)[C@@H]1O [L-IP3, reference compound]

Structure (SMILES): CCCCCCCCCCCCCCCCOC[C@H](COP(=O)([O-])OCC[N+](C)(C)C)OC(C)=O [PAF, reference compound]
[Ca2+]i response after uncaging of IP3-CPM [4]: smaller [Ca^2+ ]i increase; also recorded: attenuated response

Structure (SMILES): C/C=C(/C)C(=O)O[C@H]1C(C)=C2[C@H]([C@@H]1OC(=O)CCCCCCC)[C@@](C)(OC(C)=O)C[C@H](OC(=O)CCC)[C@@]1(O)[C@H]2OC(=O)[C@@]1(C)O [thapsigargin]
[Ca2+]i response after uncaging of IP3-CPM (1321N1 astrocytoma cells [1]): able to cause further Ca^2+ release
[Ca2+]i response after recovery from uncaging of IP3-CPM (1321N1 astrocytoma cells [2]): normally; also recorded: normal response
